Consider 3 compounds from patent US20210290680A1, “METHODS AND COMPOSITIONS FOR MODULATING CELLULAR AGING” (Dorian Therapeutics, Inc., priority 2019, published 2021).

Data set [1] concerns activated primary T cells. Kind of data set: Navitoclax-induced cell death (Sytox-negative cell count after 72 hours). Type of data set: cell-based, human. The note with it: Younger T cells (day 12) compared with Older T cells (day 24). As to the method:
Activated primary T cells were treated with the indicated amount of Navitoclax. Navitoclax is a senolytic drug selectively targeting senescent cells (Zhu et al., Aging Cell, 2016). After 72 hours, Sytox-negative T cells were counted by flow cytometry using MACSQuant (Myltenyi Biotec). […] In each experiment two different primary T cell cultures were tested for each condition (four replicas for each condition). DMSO is a negative control. Navitoclax (cat #HY-10087) was purchased from MCE. Primary T cells were activated as described (Example 3) and transduced with a lentivirus encoding either a shUSP16 or a non-targeting shRNA (shC). T cells were then treated with the indicated amount of Navitoclax. After 72 hours, Sytox-negative GFP+ cells were counted, and the numbers of dead cells were calculated as 100%−(#treated/#untreated) cells. Two different time points were tested (day 12, day 22) with two different primary T cell cultures (four replicas per each condition).

Another data set has as its system primary T cells. Kind of data set: Stem cell memory T cell phenotype by flow cytometry (CD45RA+CD62L+). Type of data set: cell-based, human. The note with it: CRISPR knockout, day 15 post-activation. The method, then: Primary T cells were activated as described (Example 3), transduced with a lentivirus encoding for either a shUSP16 or a non-targeting shRNA (Ctrl) and sorted for GFP on day 8. Cells were cultured in the presence of IL-2 and their phenotype was analyzed at day 20. Cells were stained for CD4-PerCP-5.5 or CD8-BV510, CD62L-Allophycocyanin, CD45RA-BV510 or PE-Cy7 (Biolegend). Naïve or stem cell memory T cells (TNa/SCM) were identified as Sytox^− GFP^+CD45RA^+CD62L^+. Number of TNa/SCM was calculated as (#CD4 or CD8 T cells*TNa/SCMpercentage)/100. Flow cytometry was performed on the MACQuant (Myltenyi Biotec) and the data analyzed with FlowJo (shCtrl vs shUSP CD4: 0.4978 vs 0.7915, p=0.0673 and CD8: 2.469 vs 4.984, p=0.00392, n=7). Downregulation of USP16 expression increases the number of CD4+CD45RA+CD62L+(FIG. 11A) and CD8+CD45RA+CD62L+(FIG. 11B) cells in culture by 1.7 (p=0.0205) and 1.9 (p=0.0097) times, respectively.
Primary T cells were activated as described (Example 3), transduced with a lentivirus encoding either a shUSP16 #1, shUSP16 #2 or a non-targeting shRNA (shCtrl) and cells were selected with puromycin at day 6. At day 15 cell were collected and analyzed by qPCR for the expression of LEF1 (FIG. 16A) and TCF7 (FIG. 16B), downstream regulators of the WNT pathway. At day 20, cells were stained for CD4-PE, CD8-BV510, CD62L-Allophycocyanin and CD45RA-APC-Cy7 (Biolegend). Stem cell memory T cells (Tscm) were identified as Sytox^− GFP^+CD45RA^+CD62L^+, central memory T cells (Tcm) as Sytox^−GFP^+CD45RA^−CD62L^+, effector memory T cells (Tem) as Sytox^−GFP^+CD45RA^−CD62L^−, and terminal effector T cell (Teff) as Sytox^−GFP^+CD45RA^+CD62L^− (FIG. 17A). Cells were gated on the CD8 population. The specific increase of Tscm was shown as phenotype ratio (FIG. 17B).
Primary T cells were activated as described (Example 3). At Day 6 post-activation, dynabeads were removed and T cells electroporated using the Neon Transfection System (ThermoFisher) with a 2.5:1 ratio sgRNA:Cas9. The experiment was performed following the protocol optimized for primary T cell by Synthego (CRISPR Editing Human Primary CD4+ T cells with RNPs using Neon Electroporation Protocol, 2018 version). The sgRNA used are the following: gUSP16 #1 5′-[…]-3′ (SEQ ID NO: 10) and gSynthego that comprises 3 different sgRNAs (gRNA-A: 5′-[…] 3′ (SEQ ID NO: 11); gRNA-B: 5′-[…]-3′ (SEQ ID NO: 12); gRNA-C: 5′-[…]-3′ (SEQ ID NO: 13)). Control T cells, identified as Mock, were electroporated but no Cas9:sgRNA mixture was added. […] At day 15 post-activation, cells were stained for CD4-PE, CD8-BV510, CD62L-Allophycocyanin and CD45RA-APC-Cy7 (Biolegend). Stem cell memory T cells (Tscm) were identified as Sytox^−GFP^+CD45RA^+CD62L^+ and graphed as ratio compared to mock cells (FIG. 22). The experiment was repeated using primary T cells obtained from buffy coats of 2 different healthy donors.
Primary T cells were activated as described (Example 3), transduced with a lentivirus encoding for either a CD19.CAR or a GD2.CAR co-expressing shUSP16 #1, shUSP16 #2 or a scrambled shRNA (Control). At day 15, GD2.CAR and CD19.CAR T cells were stained for EGFR-AF488 (R&D), CD3-PE, CD8-BV510, CD62L-Allophycocyanin and CD45RA-APC-Cy7 (Biolegend). Stem cell memory T cells (Tscm) were identified as FITC^+CD45RA^+CD62L^+, central memory T cells (Tcm) as FITC^+CD45RA^−CD62L^+, effector memory T cells (Tem) as FITC^+CD45RA^−CD62L^−, and terminal effector T cell (Teff) as FITC^+CD45RA^+CD62L^−. Cells were gated on the CD8 population. The specific increase of Tscm was shown as phenotype ratio (FIGS. 28A and 28B).
(Flow cytometry measures light scatter and fluorescence of single cells or particles in a stream.)

For the compound `CC1(C)CCC(c2ccc(Cl)cc2)=C(CN2CCN(c3ccc(C(=O)NS(=O)(=O)c4ccc(N[C@H](CCN5CCOCC5)CSc5ccccc5)c(S(=O)(=O)C(F)(F)F)c4)cc3)CC2)C1` [Navitoclax], the “sensitivity to Navitoclax-induced cell death” value in data set [1] was “less sensitive”.

Consider “gSynthego: comprises 3 different sgRNAs (gRNA-A, gRNA-B, gRNA-C; SEQ ID NO: 11-13), electroporated with Cas9 (guide 1 GUGUGCAGACACAUUAGAAA; guide 2 UAUUGUCAGUCUUACAGUCU; guide 3 GUUUGGCUGUGUCUUAAAUG; listed as RNA, chemistry not given here)”, for which the “stem cell memory T cells, ratio compared to mock cells” value with primary T cells came out at 1.49.

In the case of “gUSP16 #1: sgRNA 5′-UGGCGUCAGAUAGUGCUUCA-3′ (SEQ ID NO: 10), electroporated with Cas9 (listed as RNA, chemistry not given here)”, the “stem cell memory T cells, ratio compared to mock cells” value in the data set with primary T cells is given as 1.178.
